Tests used:
[1] = system: 5-hydroxytryptamine or histamine induced bronchoconstriction; experiment: Konzett-Rossler preparation: inhibition of 5-hydroxytryptamine or histamine induced bronchoconstriction, anaesthetised artificially respired guinea pig; format: in vivo; conditions: Cavia porcellus, iv
Procedure: 1. The compounds were examined for their ability to inhibit 5-hydroxytryptamine or histamine induced bronchoconstriction in the anaesthetised, artificially respired guinea pig (Konzett-Rossler preparation). The compounds were administered intravenously.

[2] = system: bronchoconstriction induced by an histamine aerosol; experiment: Herxheimer test: protection of conscious guinea pigs against histamine aerosol induced bronchoconstriction; format: in vivo, guinea pig; conditions: at 10 μg/ml after two minutes, mean of several experiments
Procedure: 2. The compounds were also examined for their ability to protect conscious guinea pigs against bronchoconstriction induced by an histamine aerosol (Herxheimer test). In these experiments the compounds were administered by aerosol. The results are the mean of several experiments.

| Compound | ED50 [1] [µg/kg] | Herxheimer % increase in preconvulsive coughing time [2] |
| --- | --- | --- |
| CCCCCCC(C)(O)CCn1c(=O)n(C)c(=O)n1CCCCCCCC(C)=O (stereo not drawn) [Compound 1, 1-(8-oxononyl)-2-(3"-hydroxy-3"-methylnonyl)-4-methyl-1,2,4-triazolidine-3,5-dione] | 2.7 | Active |
| CCCCCC(O)CCn1c(=O)n(C)c(=O)n1CCCCCCCC(C)=O (stereo not drawn) [Compound 8] | 6.9 | 31% |
| CCCCCCC(C)(O)CCn1c(=O)n(C)c(=S)n1CCCCCCCC(C)=O (stereo not drawn) [Compound 9] | 26.5 | 52% |

Source: patent US4294972A, “1,2-Disubstituted oxo triazolidine” (Beecham Group Limited, priority 1978, dated 1981)
